# Test results published in paper PMC11203978, “Discovery of Di(het)arylmethane and Dibenzoxanthene Derivatives as Potential Anticancer Agents” (International Journal of Molecular Sciences, 2024).
# Where two headings read alike, the source gives them in different places.
# Legend:
# HuTu 80 cells [1] = test: Intracellular ROS, CellROX Deep Red flow cytometry; format: cell-based, human; conditions: IC50/2 and IC50
# Method: The apoptosis via the mitochondrial pathway also increases the production of reactive oxygen species (ROS). As mitochondria itself becomes the target of ROS, an increase in their production disrupts mitochondrial functions and culminates in irreversible cell damage. Therefore, the effect of lead compounds 6a and 5a at IC50/2 and IC50 concentrations on ROS production in HuTu 80 cells was evaluated using flow cytometry. […] Such an effect is not observed for intact cells in the presence of both compounds, indicating an increase in ROS production in cancer tissues.
# Detection of Intracellular ROS. HuTU 80 cells were incubated with lead compounds at concentrations of IC50/2 and IC50 for 48 h. ROS generation was investigated using flow cytometry assay and CellROX® Deep Red flow cytometry kit. For this purpose, […] cells were harvested at 2000 rpm for 5 min and then washed twice with ice-cold PBS, followed by resuspension in 0.1 mL of medium without FBS, to which was added 0.2 μL of CellROX® Deep Red, which was followed by incubation at 37 °C for 30 min. The cells were washed three times and suspended in PBS. After that, the production of ROS in the cells was immediately monitored using flow cytometer (Guava easy Cyte, MERCK, Rahway, NJ, USA).
# MCF-7 = test: MTT cytotoxicity, MCF-7; format: cell-based; conditions: Homo sapiens, MCF7, read-out: IC50 (µM) Cancer Cell Lines MCF-7
# Excerpt: (§1) Cells and Materials. For the experiments, we used tumor cell cultures M-HeLa clone 11 (epithelioid carcinoma of the cervix, subline HeLa, clone M-HeLa), HuTu 80, human duodenal adenocarcinoma, Hep-2, human epithelial cells, SH-SY5Y, human neuroblast-like cells, A549, human lung adenocarcinoma, PA-1, human ovarian teratocarcinoma and MCF-7, a human mammary ductal adenocarcinoma from the collection of the Institute of Cytology, Russian Academy of Sciences (St. Petersburg, Russia); human liver cells (Chang liver) were from the collection and the Research Institute of Virology of the Russian Academy of Medical Sciences (Moscow, Russia).
# (§2) MTT Assay. The cytotoxic effect on cells was determined using the colorimetric method of cell proliferation—the MTT test. NADP-H-dependent cellular oxidoreductase enzymes can, under certain conditions, reflect the number of viable cells. These enzymes reduce the tetrazolium dye (MTT) 3-(4,5-dimethylthiazol-2-yl)-2,5-diphenyl-tetrazolium bromide to insoluble blue-violet formazan, which crystallizes inside the cell. The amount of formed formazan is proportional to the number of cells with active metabolism. […] Optical density was recorded at 540 nm on an Invitrologic microplate reader (Novosibirsk, Russia). […]
# (§3) Statistical analysis. The IC50 values were calculated using the MLA–Quest Graph™ IC50 Calculator (AAT Bioquest, Inc., Sunnyvale, CA, USA), 14 February 2022. […]
# M-HeLa = test: MTT cytotoxicity, M-HeLa; format: cell-based, human; conditions: Homo sapiens, M-HeLa; MTT, 48 h incubation; read-out: IC50 (µM) Cancer Cell Lines M-HeLa
# Excerpt: as §1
# (§4) MTT Assay. The cytotoxic effect on cells was determined using the colorimetric method of cell proliferation—the MTT test. NADP-H-dependent cellular oxidoreductase enzymes can, under certain conditions, reflect the number of viable cells. These enzymes reduce the tetrazolium dye (MTT) 3-(4,5-dimethylthiazol-2-yl)-2,5-diphenyl-tetrazolium bromide to insoluble blue-violet formazan, which crystallizes inside the cell. The amount of formed formazan is proportional to the number of cells with active metabolism. Cells were seeded on a 96-well Nunc plate at a concentration of 5 × 10^3 cells per well in a volume of 100 μL of medium and cultured in a CO2 incubator at 37 °C until a monolayer was formed. After the nutrient medium was removed, 100 µL of the test drug solutions at the given dilutions were added to the wells, which were prepared directly in the nutrient medium with the addition of 5% DMSO to improve solubility. After 48 h of incubation of the cells with the tested compounds, the nutrient medium was removed from the plates and 100 µL of the nutrient medium without serum with MTT at a concentration of 0.5 mg/mL was added and incubated for 4 h at 37 °C. Formazan crystals were added 100 µL of DMSO to each well. Optical density was recorded at 540 nm on an Invitrologic microplate reader (Novosibirsk, Russia). The experiments for all compounds were repeated three times.
# (§5) Statistical analysis. The IC50 values were calculated using the MLA–Quest Graph™ IC50 Calculator (AAT Bioquest, Inc., Sunnyvale, CA, USA), 14 February 2022. Statistical analysis was performed with the Mann–Whitney test (p < 0.05). Tabular and graphical data contain averages and standard error.
# HuTu 80 cells [2] = test: Mitochondrial membrane potential, JC-10 flow cytometry; format: cell-based, human; conditions: 24 h treatment, IC50/2 and IC50
# Method: In this study, we used the fluorescent dye JC-10 from the Mitochondria Membrane Potential Kit (Sigma, St. Louis, MO, USA). Changes in mitochondrial membrane potential under the influence of lead compounds 5a and 6a were determined at IC50/2 and IC50 concentrations on the HuTu 80 cell line. When JC-10 accumulates in the mitochondrial matrix, it forms fluorescent J-aggregates. Their red fluorescence is characteristic for normal cells with high mitochondrial membrane potential. The reduction in mitochondrial membrane potential in apoptotic cells allows JC-10 to escape out of the mitochondria in a monomeric form which has green fluorescence. The mitochondrial membrane potential of HuTu 80 cells is decreased after 24 h treatment with the lead compounds 5a and 6a. The change becomes more pronounced as the concentrations of the tested compounds approach IC50 (Figure 7).
# (§6) Cell Culture. HuTu 80 cells at 1 × 10^6 cells/well in a final volume of 2 mL were seeded into six-well plates. After 48 h of incubation, various concentrations of lead compounds were added to wells.
# Mitochondrial Membrane Potential. […] After the cells were rinsed three times and suspended in PBS, the JC-10 fluorescence was observed using flow cytometry (Guava easy Cyte, MERCK, Rahway, NJ, USA).
# Chang Liver = test: MTT cytotoxicity, normal Chang liver cells; format: cell-based, human; conditions: Homo sapiens, Chang liver, 48 h incubation, read-out: IC50 (µM) Normal Cell Line Chang Liver
# Excerpt: as §1, §4, §5
# HuTu 80 = test: MTT cytotoxicity, HuTu 80; format: cell-based, human; conditions: for IC50: MTT, 48 h incubation, read-out: IC50 (µM) Cancer Cell Lines HuTu 80
# Excerpt: as §1, §4, §5
# Hep-2 = test: MTT cytotoxicity, Hep-2; format: cell-based; conditions: Homo sapiens, read-out: IC50 (µM) Cancer Cell Lines Hep-2
# Excerpt: as §1, §2, §3
# HuTu 80 cells [3] = test: Induction of apoptosis, flow cytometry (annexin V-Alexa Fluor 647 / propidium iodide); format: cell-based, human; conditions: IC50/2 and IC50, 24 h
# Method: The ability of the new compounds, proposed as antitumor agents, to induce cell death via apoptosis is a critical feature for their potential use in therapy. The apoptosis-inducing effects of lead compounds were investigated using flow cytometry at IC50/2 and IC50 concentrations on the HuTu 80 cell line (Figure 6A).
# as §6
# Cell Apoptosis Analysis. The cells were harvested at 2000 rpm for 5 min and were then washed twice with ice-cold PBS, and resuspended in binding buffer. Next, the samples were incubated with 5 μL of annexin V-Alexa Fluor 647 (Sigma-Aldrich, St Louis, MO, USA) and 5 μL of propidium iodide for 15 min at room temperature in the dark. Finally, the cells were analyzed using flow cytometry (Guava easy Cyte, MERCK, Rahway, NJ, USA) within 1 h. The experiments were repeated three times.
# PA-1 = test: MTT cytotoxicity, PA-1; format: cell-based; conditions: Homo sapiens, read-out: IC50 (µM) Cancer Cell Lines PA-1
# Excerpt: as §1, §2, §3
# A549 = test: MTT cytotoxicity, A549; format: cell-based; conditions: Homo sapiens, read-out: IC50 (µM) Cancer Cell Lines A549
# Excerpt: as §1, §2, §3
# SH-SY5Y = test: MTT cytotoxicity, SH-SY5Y; format: cell-based; conditions: Homo sapiens, read-out: IC50 (µM) Cancer Cell Lines SH-SY5Y
# Excerpt: as §1, §2, §3
structure (smiles),measurement,setting,value
Cc1cc(O)c(C(CCNC(=O)CCl)c2c(O)cc(C)oc2=O)c(=O)o1 [Compound 5a],"ROS production, CellROX Deep Red fluorescence intensity (in words)",HuTu 80 cells [1],significant reliable increase
same,IC50,MCF-7,85.6 ± 3.12 µM
same,IC50,M-HeLa,56.2 ± 4.7 µM
same,mitochondrial membrane potential (in words),HuTu 80 cells [2],decreased
same,IC50,Chang Liver,139 ± 11 µM
same,IC50,"HuTu 80; Homo sapiens, HuTu80, 48 h",1.7 µM
same,times more effective / more cytotoxic than the reference drug sorafenib,HuTu 80; HuTu 80,1.7
same,IC50,HuTu 80,1.9 ± 0.2 µM
same,IC50,Hep-2,65.8 ± 1.18 µM
same,apoptosis-inducing effect (in words),HuTu 80 cells [3],apoptotic effects increase at the early apoptosis stage
same,IC50,PA-1,80.2 ± 4.05 µM
same,IC50,A549,82.1 ± 3.56 µM
same,IC50,SH-SY5Y,75.8 ± 2.84 µM
